What was measured:
Assay in all cases: relative viability (nuclei count vs DMSO), 5 days (fraction); higher = more cells survive
NPK76-II-72-1 + OSI-027 = compound: CC1CC(=O)N(C2=CN=C(N=C2N1C3CCCC3)NC4=C(C=C(C=C4)C(=O)NC5CCN(CC5)C)OC)C [NPK76-II-72-1] + COc1cccc2cc(-c3nc([C@H]4CC[C@H](C(=O)O)CC4)n4ncnc(N)c34)[nH]c12 [OSI-027] (partner 0.5 µM)
How it was run: (§1)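 Relative viability equals treated-well nuclei counts divided by vehicle-well nuclei counts. Counts came from 4× images of lung cancer cell lines grown in 1536-well plates for 5 days after pin-tool dosing on the day after seeding. Dosing used one drug alone or a fixed anchor-drug dose plus five library-drug doses (not always all listed) in √10 steps, and values are medians of duplicate plates.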

[1] = compound: CC1CC(=O)N(C2=CN=C(N=C2N1C3CCCC3)NC4=C(C=C(C=C4)C(=O)NC5CCN(CC5)C)OC)C [NPK76-II-72-1] + C[C@@H](Oc1cc(-c2cnn(C3CCNCC3)c2)cnc1N)c1c(Cl)ccc(F)c1Cl [Crizotinib] (partner 1 µM)
How it was run: as §1

[2] = compound: CC1CC(=O)N(C2=CN=C(N=C2N1C3CCCC3)NC4=C(C=C(C=C4)C(=O)NC5CCN(CC5)C)OC)C [NPK76-II-72-1] + Nc1ncn([C@H]2C[C@H](O)[C@@H](CO)O2)c(=O)n1 [Decitabine] (partner 2 µM)
How it was run: as §1

BI-2536 + OSI-027 = compound: CC[C@@H]1C(=O)N(C)c2cnc(Nc3ccc(C(=O)NC4CCN(C)CC4)cc3OC)nc2N1C1CCCC1 [BI-2536] + COc1cccc2cc(-c3nc([C@H]4CC[C@H](C(=O)O)CC4)n4ncnc(N)c34)[nH]c12 [OSI-027] (partner 0.5 µM)
How it was run: as §1

Cell Line | relative viability (NPK76-II-72-1 + OSI-027; first compound 0.01 µM) | relative viability (NPK76-II-72-1 + OSI-027; first compound 0.03162 µM) | relative viability (NPK76-II-72-1 + OSI-027; first compound 0.1 µM) | relative viability (NPK76-II-72-1 + OSI-027; first compound 0.3162 µM) | relative viability (NPK76-II-72-1 + OSI-027; first compound 1 µM) | relative viability ([1]; first compound 0.01 µM) | relative viability ([1]; first compound 0.03162 µM) | relative viability ([1]; first compound 0.1 µM) | relative viability ([1]; first compound 0.3162 µM) | relative viability ([1]; first compound 1 µM) | relative viability ([2]; first compound 0.01 µM) | relative viability ([2]; first compound 0.03162 µM) | relative viability ([2]; first compound 0.1 µM) | relative viability ([2]; first compound 0.3162 µM) | relative viability ([2]; first compound 1 µM) | relative viability (BI-2536 + OSI-027; first compound 0.01 µM) | relative viability (BI-2536 + OSI-027; first compound 0.03162 µM) | relative viability (BI-2536 + OSI-027; first compound 0.1 µM) | relative viability (BI-2536 + OSI-027; first compound 0.3162 µM) | relative viability (BI-2536 + OSI-027; first compound 1 µM)
NCI-H1975 | 0.698 | 0.712 | 0.753 | 0.72 | 0.753 | 0.939 | 0.965 | 0.914 | 0.876 | 0.95 | 0.351 | 0.375 | 0.398 | 0.364 | 0.391 | 0.628 | 0.623 | 0.515 | 0.125 | 0.107
CAL-12T | 0.626 | 0.787 | 0.601 | 0.683 | 0.823 | 0.685 | 0.665 | 0.719 | 0.544 | 0.674 | – | – | – | – | – | 0.646 | 0.531 | 0.188 | 0.144 | 0.191
NCI-H1623 | 0.422 | 0.405 | 0.432 | 0.362 | 0.461 | – | – | – | – | – | – | – | – | – | – | 0.433 | 0.392 | 0.39 | 0.233 | 0.294
HCC-44 | 0.617 | 0.702 | 0.337 | 0.599 | 0.65 | 0.734 | 0.772 | 0.827 | 0.795 | 0.846 | 0.991 | 1.08 | 0.931 | 0.922 | 0.968 | 0.483 | 0.527 | 0.13 | 0.135 | 0.12
EKVX | 0.66 | 0.783 | 0.501 | 0.649 | 0.821 | 0.787 | 1.16 | 0.936 | 0.832 | 0.922 | 0.329 | 0.353 | 0.34 | – | 0.387 | 0.717 | 0.731 | 0.66 | 0.258 | 0.149
NCI-H1651 | 0.676 | 0.743 | 0.677 | 0.652 | 0.799 | 0.885 | 0.881 | 0.871 | 0.881 | 0.868 | 0.611 | 0.645 | 0.606 | 0.589 | 0.604 | 0.686 | 0.758 | 0.272 | 0.0807 | 0.0995
NCI-H1944 | 0.422 | 0.44 | 0.364 | 0.369 | 0.541 | 0.985 | 1.12 | 1.1 | 1.01 | 1.22 | 0.431 | 0.463 | 0.408 | 0.408 | 0.478 | 0.418 | 0.443 | 0.291 | 0.134 | 0.148
NCI-H1703 | – | – | – | – | – | 0.525 | 0.754 | 0.774 | 0.641 | 0.628 | – | – | – | – | – | – | – | – | – | –
Calu-6 | – | – | – | – | – | 0.757 | 0.784 | 0.763 | 0.713 | 0.861 | – | – | – | – | – | – | – | – | – | –
EBC-1 | – | – | – | – | – | 0.178 | 0.21 | 0.19 | 0.214 | 0.184 | – | – | – | – | – | – | – | – | – | –
SW 1573 | 0.704 | 0.65 | 0.603 | 0.599 | 0.664 | 0.637 | 0.891 | 0.77 | 0.686 | 0.912 | 0.508 | 0.579 | 0.51 | 0.649 | 0.505 | 0.681 | 0.44 | 0.133 | 0.0966 | 0.0839
A-427 | 0.497 | 0.526 | 0.452 | 0.376 | 0.434 | 0.798 | 0.908 | 0.907 | 0.777 | 0.969 | 0.547 | 0.592 | 0.611 | 0.541 | 0.574 | 0.464 | 0.471 | 0.251 | 0.12 | 0.119
NCI-H2347 | 0.407 | 0.502 | 0.466 | 0.366 | 0.274 | 0.742 | 0.698 | 0.715 | 0.718 | 0.944 | 0.607 | 0.578 | 0.614 | 0.562 | 0.635 | – | 0.464 | 0.346 | 0.285 | 0.276
NCI-H1355 | 0.332 | 0.421 | 0.397 | 0.384 | 0.489 | 0.858 | 1.06 | 1.13 | 0.841 | 1.16 | 0.349 | 0.359 | 0.338 | 0.315 | 0.344 | 0.421 | 0.389 | 0.206 | 0.176 | 0.189
NCI-H358 | 0.703 | 0.812 | 1 | – | 0.916 | 0.606 | 0.604 | 0.604 | 0.437 | 0.651 | 0.193 | 0.215 | 0.222 | – | 0.214 | 0.758 | 0.477 | 0.0848 | 0.0717 | 0.0809
PC-3 [JPC-3] | 0.664 | 0.742 | 0.78 | 0.711 | 0.889 | 0.943 | 0.958 | 0.998 | 0.938 | 0.995 | 0.811 | – | 0.882 | 0.878 | 0.95 | 0.828 | 0.581 | 0.333 | 0.179 | 0.16
NCI-H2228 | 0.427 | 0.615 | 0.547 | 0.55 | 0.724 | 0.404 | 0.611 | 0.48 | 0.39 | 0.711 | – | – | – | – | – | 0.576 | 0.437 | 0.141 | 0.124 | 0.26
HOP-62 | 0.784 | 0.919 | 0.917 | 0.722 | 0.978 | 0.85 | 0.907 | 0.75 | 0.896 | 0.982 | 0.202 | 0.238 | 0.222 | 0.208 | 0.203 | 0.803 | 0.724 | 0.526 | 0.268 | 0.181
HARA | 0.393 | 0.424 | 0.545 | 0.345 | 0.67 | 0.993 | 1.2 | 1.03 | 1.01 | 1.24 | 0.643 | 0.57 | 0.616 | – | 0.451 | 0.512 | 0.738 | 0.152 | 0.0483 | 0.0491

From the supplement of paper PMC10307832
